Where two headings read alike, the source gives them in different places.
Assays:
[1] = Plasma PK of ANEB-001 and THC, 30 mg or 10 mg oral Compound 1 with 21 mg THC (Example 4); type: in vivo, human; conditions: for concentration at 0 h / concentration at 20 min / concentration at 40 min / concentration at 1 h / concentration at 2 h / concentration at 3 h / concentration at 4 h / concentration at 5 h / concentration at 24 h / AUC(0-t) / Cmax / Tmax: human, in vivo; for concentration at 0 h: 00H00M; for concentration at 20 min: 00H20M; for concentration at 40 min: 00H40M; for concentration at 1 h: 01H00M; for concentration at 2 h: 02H00M; for concentration at 3 h: 03H00M; for concentration at 4 h: 04H00M; for concentration at 5 h: 05H00M; for concentration at 24 h: 24H00M; for Tmax: read-out: THC plasma tmax, Median
Method: Following the general methods of Example 2, the study design was adjusted such that groups received either (a) THC (21 mg)+placebo or (b) THC (21 mg)+Compound 1 (30 mg) (FIG. 14) or either (a) THC (21 mg)+placebo or (b) THC (21 mg)+Compound 1 (10 mg) (FIG. 15). […] Summary of pharmacokinetics of THC with 30 mg ANEB-001 challenge (FIG. 18A and FIG. 18B), AUC after 5 hours (FIG. 18C), AUC last (FIG. 18D) and Cmax (FIG. 18E).
Summary of pharmacokinetics for 30 mg ANEB-001 and 10 mg ANEB-001 challenge with 21 mg THC administration in plasma (FIGS. 19A and 19B); AUC after 5 hours for 10 mg ANEB-001 and 30 mg ANEB-001 (FIG. 19C), AUC last (FIG. 19D), and Cmax (FIG. 19E).
All PK parameter calculations were based on actual sampling time. For calculation of PK parameters, all BLQ concentrations that were between the first and last non-BLQ values were dropped (treated as ‘missing’). For calculation of AUClast and t1/2, additionally all values that were BLQ after the last non-BLQ value were dropped (treated as missing). If data points for concentrations were missing, the AUC parameters were derived by interpolating with regard to the 2 neighboring non-missing concentrations. AUC was calculated using the log-linear trapezoidal rule.
Reporting of drug concentration data. The concentrations are summarized (mean, SD, % CV, median, Min and Max values) by treatment and time, and are also presented graphically as mean over time, with standard deviation as error bars. For graphical and summary purposes of drug concentrations, values below the limit of quantification (BLQ) are set to zero. The SD and CVT are not reported if the mean is 0.
Reporting of PK parameters. The individual PK parameters (except tmax and tlag) are summarized (mean, SD, CV, geometric mean, geometric CV, median, M in and Max) per treatment group and a selection of the PK parameters are presented graphically as boxplots. For tmax and tlag, the median, Min and Max statistics are reported. Boxplots present the median (horizontal solid line), the 25%-75% distribution (IQR), with 1.5× the IQR as whiskers.

[2] = test system: central nervous system effects of THC; test: THC challenge PD, 10.5 mg THC + 30 mg Compound 1 (Example 3); type: in vivo, human; conditions: THC (10.5 mg) + Compound 1 (30 mg)
Method: Following the general methods of Example 1, the study design was adjusted such that groups received either (a) THC (10.5 mg)+placebo or (b) THC (10.5 mg)+Compound 1 (30 mg). Pharmacodynamic properties were then measured for Compound 1.

[3] = 21 mg THC + 30 mg ANEB-001, read-out: THC in Plasma (concentration), Mean
[4] = 21 mg THC + 30 mg ANEB-001, read-out: THC in Plasma (concentration), Median
[5] = 21 mg, 21 mg THC + Placebo, read-out: THC in Plasma (concentration), Mean
[6] = 21 mg, 21 mg THC + Placebo, read-out: THC in Plasma (concentration), Median

For `CCCCCc1cc(O)c2c(c1)OC(C)(C)[C@@H]1CCC(C)=C[C@@H]21` [THC, Δ9-tetrahydrocannabinol], the “THC Dose normalized Cmax, GeoMean” value ([1]; 21 mg THC + 30 mg ANEB-001) was 0.4482 ng/mL/mg, the “THC Dose normalized Cmax, Mean” value ([1]; 21 mg THC + 30 mg ANEB-001) was 0.4658 ng/mL/mg and the “THC Dose normalized Cmax, Median” value ([1]; 21 mg THC + 30 mg ANEB-001) was 0.442 ng/mL/mg. The “THC plasma tlag, Median” value ([1]; 21 mg THC + 30 mg ANEB-001) was 0 h, the “THC Dose normalized Cmax, GeoMean” value ([1]; 21 mg THC + Placebo) was 0.2634 ng/mL/mg and the “THC Dose normalized Cmax, Mean” value ([1]; 21 mg THC + Placebo) was 0.2965 ng/mL/mg. The “THC Dose normalized Cmax, Median” value ([1]; 21 mg THC + Placebo) was 0.260 ng/mL/mg, the “THC plasma AUC5H, Mean” value ([1]; 21 mg THC + Placebo) was 14.6 ng·h/mL and the “THC plasma tlag, Median” value ([1]; 21 mg THC + Placebo) was 0 h. For the same compound, the concentration at 0 h [1, 3] was 0.0163 ng/mL, the concentration at 0 h [1, 4] was 0 ng/mL and the concentration at 20 min [1, 3] was 4.16 ng/mL. It also gave a concentration at 20 min [1, 4] of 3.48 ng/mL, a concentration at 40 min [1, 3] of 8.94 ng/mL and a concentration at 40 min [1, 4] of 8.4 ng/mL. The concentration at 1 h [1, 3] was 7.45 ng/mL, the concentration at 1 h [1, 4] was 7.31 ng/mL and the concentration at 2 h [1, 3] was 4.07 ng/mL. For the same compound, the concentration at 2 h [1, 4] was 4.01 ng/mL, the concentration at 3 h [1, 3] was 2.46 ng/mL and the concentration at 3 h [1, 4] was 2.03 ng/mL. For the same compound, the concentration at 4 h [1, 3] was 1.22 ng/mL, the concentration at 4 h [1, 4] was 1.28 ng/mL and the concentration at 5 h [1, 3] was 0.744 ng/mL. The concentration at 5 h [1, 4] was 0.684 ng/mL, the concentration at 24 h [1, 3] was 0.0551 ng/mL and the concentration at 24 h [1, 4] was 0 ng/mL. For the same compound, the AUC(0-t) ([1]; 21 mg THC + 30 mg ANEB-001, read-out: THC plasma AUC5H, GeoMean) was 16.3 ng·h/mL, the AUC(0-t) ([1]; 21 mg THC + 30 mg ANEB-001, read-out: THC plasma AUC5H, Mean) was 17 ng·h/mL and the AUC(0-t) ([1]; 21 mg THC + 30 mg ANEB-001, read-out: THC plasma AUC5H, Median) was 16.1 ng·h/mL. The AUC(0-t) ([1]; 21 mg THC + 30 mg ANEB-001, read-out: THC plasma AUClast, GeoMean) was 17.9 ng·h/mL, the AUC(0-t) ([1]; 21 mg THC + 30 mg ANEB-001, read-out: THC plasma AUClast, Mean) was 19.3 ng·h/mL and the AUC(0-t) ([1]; 21 mg THC + 30 mg ANEB-001, read-out: THC plasma AUClast, Median) was 18.4 ng·h/mL. For the same compound, the Cmax ([1]; 21 mg THC + 30 mg ANEB-001, read-out: THC plasma Cmax, GeoMean) was 9.41 ng/mL, the Cmax ([1]; 21 mg THC + 30 mg ANEB-001, read-out: THC plasma Cmax, Mean) was 9.78 ng/mL and the Cmax ([1]; 21 mg THC + 30 mg ANEB-001, read-out: THC plasma Cmax, Median) was 9.28 ng/mL. The Tmax ([1]; 21 mg THC + 30 mg ANEB-001) was 40.2 min, the concentration at 0 h [1, 5] was 0 ng/mL and the concentration at 0 h [1, 6] was 0 ng/mL. It also gave a concentration at 20 min [1, 5] of 2.22 ng/mL, a concentration at 20 min [1, 6] of 2.01 ng/mL and a concentration at 40 min [1, 5] of 6.1 ng/mL. For the same compound, the concentration at 40 min [1, 6] was 5.46 ng/mL, the concentration at 1 h [1, 5] was 5.78 ng/mL and the concentration at 1 h [1, 6] was 5.47 ng/mL. The concentration at 2 h [1, 5] was 2.85 ng/mL, the concentration at 2 h [1, 6] was 1.86 ng/mL and the concentration at 3 h [1, 5] was 3.23 ng/mL. It also gave a concentration at 3 h [1, 6] of 1.47 ng/mL, a concentration at 4 h [1, 5] of 1.66 ng/mL and a concentration at 4 h [1, 6] of 0.894 ng/mL. For the same compound, the concentration at 5 h [1, 5] was 1.06 ng/mL, the concentration at 5 h [1, 6] was 0.456 ng/mL and the concentration at 24 h [1, 5] was 0.0206 ng/mL. The concentration at 24 h [1, 6] was 0 ng/mL, the AUC(0-t) ([1]; 21 mg, 21 mg THC + Placebo, read-out: THC plasma AUC5H, GeoMean) was 12 ng·h/mL and the AUC(0-t) ([1]; 21 mg, 21 mg THC + Placebo, read-out: THC plasma AUC5H, Median) was 9.32 ng·h/mL. It also gave an AUC(0-t) ([1]; 21 mg, 21 mg THC + Placebo, read-out: THC plasma AUClast, GeoMean) of 13 ng·h/mL, an AUC(0-t) ([1]; 21 mg, 21 mg THC + Placebo, read-out: THC plasma AUClast, Mean) of 18.3 ng·h/mL and an AUC(0-t) ([1]; 21 mg, 21 mg THC + Placebo, read-out: THC plasma AUClast, Median) of 9.32 ng·h/mL. It also gave a Cmax ([1]; 21 mg, 21 mg THC + Placebo, read-out: THC plasma Cmax, GeoMean) of 5.53 ng/mL, a Cmax ([1]; 21 mg, 21 mg THC + Placebo, read-out: THC plasma Cmax, Mean) of 6.23 ng/mL and a Cmax ([1]; 21 mg, 21 mg THC + Placebo, read-out: THC plasma Cmax, Median) of 5.47 ng/mL. The Tmax ([1]; 21 mg THC + Placebo) was 40.2 min.

For `CC(C)(C)NC(=O)N1CC(O[C@H](c2ccc(Cl)cc2)c2ccccc2C(F)(F)F)C1` [Compound 1, (R)—N-(tert-butyl)-3-((4-chlorophenyl)(2-(trifluoromethyl)phenyl)methoxy)azetidine-1-carboxamide], the “Body sway, VAS alertness and VAS feeling high vs. placebo” value [2] was “improvements in metrics such as body sway, VAS alertness, and VAS feeling high”.
